# Measurements: EP0908457B1, “3-(1,2-benzisothiazol- and isoxazol-5-Y1)-2,4(1H,3H)-pyrimidinedione or thione and 3-(1,2-benzisothiazol- and isoxazol-5-y1)-4(3H)-pyrimidinone or thione herbicidal agents” (BASF AKTIENGESELLSCHAFT, priority 1997, dated 1999)
# Experiments:
# [1] = test system: Monochoria vaginalis, Presl.; assay: Preemergence weed control under flooded paddy conditions, MOOVA (Monochoria); type: in vivo; conditions: preemergence weeds, flooded paddy, herbicidal effect rating 0-9, three to four weeks after treatment
# [2] = test system: Echinochloa oryzoides (Ard.) Fritsch.; assay: Preemergence weed control under flooded paddy conditions, ECHORC (Watergrass (Calif.)); type: in vivo; conditions: preemergence weeds, flooded paddy, herbicidal effect rating 0-9, three to four weeks after treatment
# Sagittaria pygmaea, L. = assay: Preemergence weed control under flooded paddy conditions, SAGPY (Arrowhead (Pygmaea)); type: in vivo; conditions: preemergence weeds, flooded paddy, herbicidal effect rating 0-9, three to four weeks after treatment
# Cyperus iria = assay: Preemergence weed control under flooded paddy conditions, CYPIR (Rice Flatsedge); type: in vivo; conditions: preemergence weeds, flooded paddy, herbicidal effect rating 0-9, three to four weeks after treatment
# [3] = test system: Oryza sativa, (L.) Tebonnet; assay: Rice tolerance to post-transplant applications under flooded paddy conditions (Example 187), ORYSAT (Rice, Tebonnet); conditions: herbicidal effect rating 0-9, three to four weeks after treatment
# [4] = test system: Cyperus serotinus, Rottb.; assay: Preemergence weed control under flooded paddy conditions, CYPSE (Flatsedge); type: in vivo; conditions: preemergence weeds, herbicidal effect rating 0-9, three to four weeks after treatment
Compound,MOOVA ([1]; 0.0320 kg/ha),MOOVA ([1]; 0.0620 kg/ha),MOOVA ([1]; 0.1250 kg/ha),MOOVA ([1]; 0.2500 kg/ha),ECHORC ([2]; 0.0320 kg/ha),ECHORC ([2]; 0.0620 kg/ha),ECHORC ([2]; 0.1250 kg/ha),ECHORC ([2]; 0.2500 kg/ha),"SAGPY (Sagittaria pygmaea, L.; 0.0320 kg/ha)","SAGPY (Sagittaria pygmaea, L.; 0.0620 kg/ha)","SAGPY (Sagittaria pygmaea, L.; 0.1250 kg/ha)","SAGPY (Sagittaria pygmaea, L.; 0.2500 kg/ha)",CYPIR (Cyperus iria; 0.0320 kg/ha),CYPIR (Cyperus iria; 0.0620 kg/ha),CYPIR (Cyperus iria; 0.1250 kg/ha),CYPIR (Cyperus iria; 0.2500 kg/ha),ORYSAT ([3]; 0.0320 kg/ha),ORYSAT ([3]; 0.0620 kg/ha),ORYSAT ([3]; 0.1250 kg/ha),ORYSAT ([3]; 0.2500 kg/ha),other results
"Cn1c(C(F)(F)F)cc(=O)n(-c2ccc3snc(C(Br)S(=O)(=O)c4ccccc4)c3c2)c1=O (stereo not drawn) [Example 407, 2,4(1H,3H)-Pyrimidinedione, 3-{3-[bromo(phenylsulfonyl)methyl]-1,2-benzisothiazol-5-yl}-1-methyl-6-(trifluoromethyl)-]",6.0,7.0,9.0,9.0,0.0,3.0,7.0,7.0,0.0,2.0,6.0,7.0,3.0,4.0,9.0,9.0,0.0,2.0,3.0,5.0,CYPSE ([4]; 0.0320 kg/ha): 0.0; CYPSE ([4]; 0.0620 kg/ha): 0.0; CYPSE ([4]; 0.1250 kg/ha): 5.0; CYPSE ([4]; 0.2500 kg/ha): 7.0
"Cn1c(C(F)(F)F)cc(=O)n(-c2ccc3snc(/C=N/Nc4ccccc4)c3c2)c1=O [Example 408, 1,2-Benzisothiazole-3-carboxaldehyde, 5-[3,6-dihydro-3-methyl-2,6-dioxo-4-(trifluoromethyl)-1(2H)-pyrimidinyl]-, 3-(phenylhydrazone), (E)-]",7.0,9.0,9.0,9.0,2.0,3.0,6.0,7.0,0.0,0.0,4.0,6.0,6.0,9.0,9.0,9.0,0.0,2.0,2.0,3.0,CYPSE ([4]; 0.0320 kg/ha): 0.0; CYPSE ([4]; 0.0620 kg/ha): 0.0; CYPSE ([4]; 0.1250 kg/ha): 5.0; CYPSE ([4]; 0.2500 kg/ha): 6.0
"CN(C)/N=C/c1nsc2ccc(-n3c(=O)cc(C(F)(F)F)n(C)c3=O)cc12 [Example 409, 1,2-Benzisothiazole-3-carboxaldehyde, 5-[3,6-dihydro-3-methyl-2,6-dioxo-4-(trifluoromethyl)-1(2H)-pyrimidinyl]-, 3-(dimethylhydrazone), (E)-]",9.0,9.0,9.0,9.0,3.0,4.0,9.0,9.0,2.0,4.0,7.0,9.0,7.0,9.0,9.0,9.0,3.0,5.0,7.0,9.0,CYPSE ([4]; 0.0320 kg/ha): 2.0; CYPSE ([4]; 0.0620 kg/ha): 5.0; CYPSE ([4]; 0.1250 kg/ha): 9.0; CYPSE ([4]; 0.2500 kg/ha): 9.0
"Cn1c(C(F)(F)F)cc(=O)n(-c2ccc3snc(C(=O)OCCCO)c3c2)c1=O [Example 410, 1,2-Benzisothiazole-3-carboxylic acid, 5-[3,6-dihydro-3-methyl-2,6-dioxo-4-(trifluoromethyl)-1(2H)-pyrimidinyl]-, 3-hydroxypropyl ester]",9.0,9.0,9.0,9.0,0.0,0.0,9.0,9.0,3.0,7.0,9.0,9.0,9.0,9.0,9.0,9.0,0.0,3.0,5.0,7.0,CYPSE ([4]; 0.0320 kg/ha): 2.0; CYPSE ([4]; 0.0620 kg/ha): 5.0; CYPSE ([4]; 0.1250 kg/ha): 9.0; CYPSE ([4]; 0.2500 kg/ha): 9.0
